Test: Solubility test in methyl ethyl ketone
Assay type: physicochemical
Details: 1.5 g sensitiser in 100 g methyl ethyl ketone, stirred at room temperature (20° C.) for a maximum of 24 hours
Procedure: Solubility Test in Methyl Ethyl Ketone
1.5 g of the sensitiser is dissolved in 100g of methyl ethyl ketone and allowed to stir at room temperature (20° C.) for a maximum of 24 hours. If the sensitiser is completely dissolved in the methyl ethyl ketone, the sensitiser passes the solubility test and is considered as a preferred sensitiser according to the present invention.

Structure (SMILES) | Solubility test MEK (15 g/kg)
CCC(C)Oc1c(OC)cc(C=Cc2ccc(C=Cc3cc(OC)c(OC(C)CC)c(OC)c3)cc2)cc1OC (centres unmarked) [(D), 1,4-distyryl-(3,5-trimethoxy, 4-(2-butyl)oxy)benzene] | OK (If the sensitiser is completely dissolved in the methyl ethyl ketone, the sensitiser passes the solubility test)
CCCCC(CC)COc1c(OC)cc(C=Cc2ccc(C=Cc3cc(OC)c(OCC(CC)CCCC)c(OC)c3)cc2)cc1OC (centres unmarked) [(F), 1,4-distyryl-(3,5-trimethoxy, 4-(1-(2-ethyl)hexyl)oxy)benzene] | OK (If the sensitiser is completely dissolved in the methyl ethyl ketone, the sensitiser passes the solubility test)

From patent US7527916B2, “Photopolymerizable composition” (Agfa Graphics, N.V., priority 2003, dated 2009)
